Experimental data from ChEMBL document CHEMBL4680155, “One-pot synthesis and molecular docking of some new spiropyranindol-2-one derivatives as immunomodulatory agents and in vitro antimicrobial potential with DNA gyrase inhibitor” (Eur J Med Chem, 2020).
Converted amounts (≈) assume the structure as drawn.

Experiments:
Escherichia coli [1] = assay: Antibacterial activity against Escherichia coli ATCC 25922 assessed as reduction in bacterial growth incubated for 1 day by paper disk diffusion method; type: functional; conditions: ATCC 25922, 24 h
Candida albicans [2] = assay: Antifungal activity against Candida albicans ATCC 10231 assessed as reduction in bacterial growth incubated for 1 day by paper disk diffusion method; type: functional; conditions: ATCC 10231, 24 h
Staphylococcus aureus [3] = assay: Antibacterial activity against multidrug resistant Staphylococcus aureus ATCC 43300 assessed as reduction in bacterial growth incubated for 1 day by paper disk diffusion method; type: functional; conditions: ATCC 43300, 24 h
Enterococcus faecalis [4] = assay: Bactericidal activity against Enterococcus faecalis ATCC 29212 incubated for 24 hrs followed by transferring to freshly prepared broth medium and measured after 24 hrs by broth microdilution assay; type: functional; conditions: time 48 hrs
Pseudomonas aeruginosa [5] = assay: Bactericidal activity against Pseudomonas aeruginosa ATCC BAA-2111 incubated for 24 hrs followed by transferring to freshly prepared broth medium and measured after 24 hrs by broth microdilution assay; type: functional; conditions: time 48 hrs
Staphylococcus aureus [6] = assay: Bactericidal activity against Staphylococcus aureus ATCC 29213 incubated for 24 hrs followed by transferring to freshly prepared broth medium and measured after 24 hrs by broth microdilution assay; type: functional; conditions: time 48 hrs
DNA gyrase = DNA gyrase (Staphylococcus aureus, UniProt P0A0K8+P20831); assay: Inhibition of Staphylococcus aureus DNA gyrase using relaxed pBR322 DNA as substrate incubated for 45 mins by agarose gel electrophoresis method; type: protein-complex assay
Chain of DNA gyrase (P0A0K8 whole entry): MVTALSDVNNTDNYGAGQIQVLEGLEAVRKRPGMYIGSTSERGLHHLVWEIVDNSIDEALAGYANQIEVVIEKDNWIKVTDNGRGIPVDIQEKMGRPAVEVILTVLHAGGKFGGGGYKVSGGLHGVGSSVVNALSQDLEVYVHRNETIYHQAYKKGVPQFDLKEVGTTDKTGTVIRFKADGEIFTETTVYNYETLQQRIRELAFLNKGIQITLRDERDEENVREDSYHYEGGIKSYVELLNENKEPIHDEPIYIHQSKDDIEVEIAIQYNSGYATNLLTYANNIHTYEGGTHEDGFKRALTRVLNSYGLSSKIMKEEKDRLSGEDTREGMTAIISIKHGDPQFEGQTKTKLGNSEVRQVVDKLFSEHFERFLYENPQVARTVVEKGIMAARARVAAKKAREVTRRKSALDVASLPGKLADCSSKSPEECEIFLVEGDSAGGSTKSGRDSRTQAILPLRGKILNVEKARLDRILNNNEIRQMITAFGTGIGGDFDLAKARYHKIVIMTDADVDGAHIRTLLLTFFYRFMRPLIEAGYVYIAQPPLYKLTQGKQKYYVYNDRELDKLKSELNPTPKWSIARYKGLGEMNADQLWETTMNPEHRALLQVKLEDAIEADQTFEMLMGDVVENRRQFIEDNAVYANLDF
Chain of DNA gyrase (P20831 whole entry): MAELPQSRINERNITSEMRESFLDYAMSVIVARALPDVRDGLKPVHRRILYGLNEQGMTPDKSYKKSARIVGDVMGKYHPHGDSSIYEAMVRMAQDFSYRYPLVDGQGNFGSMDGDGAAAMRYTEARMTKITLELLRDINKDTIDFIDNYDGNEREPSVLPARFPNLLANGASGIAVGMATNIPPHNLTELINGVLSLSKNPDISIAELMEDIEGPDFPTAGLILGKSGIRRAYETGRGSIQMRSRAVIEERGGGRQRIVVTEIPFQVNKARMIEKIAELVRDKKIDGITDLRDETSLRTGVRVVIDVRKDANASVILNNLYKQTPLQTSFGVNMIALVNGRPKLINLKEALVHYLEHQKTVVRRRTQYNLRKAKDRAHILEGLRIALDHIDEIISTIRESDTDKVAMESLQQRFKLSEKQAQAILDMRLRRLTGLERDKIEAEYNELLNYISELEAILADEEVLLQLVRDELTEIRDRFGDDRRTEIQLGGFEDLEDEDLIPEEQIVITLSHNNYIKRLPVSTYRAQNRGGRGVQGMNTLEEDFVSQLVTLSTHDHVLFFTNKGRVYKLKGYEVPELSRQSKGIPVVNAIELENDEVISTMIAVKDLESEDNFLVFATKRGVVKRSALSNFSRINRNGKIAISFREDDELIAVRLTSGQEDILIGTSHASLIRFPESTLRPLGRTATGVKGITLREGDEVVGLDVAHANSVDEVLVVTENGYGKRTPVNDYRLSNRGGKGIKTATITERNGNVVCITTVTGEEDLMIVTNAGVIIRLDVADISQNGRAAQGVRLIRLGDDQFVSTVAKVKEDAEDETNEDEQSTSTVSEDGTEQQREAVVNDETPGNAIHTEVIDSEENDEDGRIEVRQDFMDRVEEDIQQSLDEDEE

Staphylococcus aureus [7] = assay: Bactericidal activity against Staphylococcus aureus ATCC 43300 incubated for 24 hrs followed by transferring to freshly prepared broth medium and measured after 24 hrs by broth microdilution assay; type: functional; conditions: time 48 hrs
Staphylococcus aureus [8] = assay: Antibacterial activity against multidrug resistant Staphylococcus aureus ATCC 33591 assessed as reduction in bacterial growth incubated for 1 day by paper disk diffusion method; type: functional; conditions: ATCC 33591, 24 h
Pseudomonas aeruginosa [9] = assay: Antibacterial activity against multidrug resistant Pseudomonas aeruginosa ATCC BAA-2111 assessed as diameter of inhibition zone at 0.5 mg/ml incubated for 24 hrs by agar diffusion method; type: functional; conditions: read-out: DIZ
Staphylococcus aureus [10] = assay: Antibacterial activity against multidrug resistant Staphylococcus aureus ATCC 33591 assessed as diameter of inhibition zone at 0.5 mg/ml incubated for 24 hrs by agar diffusion method; type: functional; conditions: read-out: DIZ
Enterococcus faecalis [11] = assay: Antibacterial activity against Enterococcus faecalis ATCC 29212 assessed as reduction in bacterial growth incubated for 1 day by paper disk diffusion method; type: functional; conditions: ATCC 29212, 24 h
Aspergillus brasiliensis [12] = assay: Antifungal activity against Aspergillus brasiliensis ATCC 16404 assessed as reduction in bacterial growth incubated for 3 days by paper disk diffusion method; type: functional; conditions: ATCC 16404, 72 h, time 3 day
Aspergillus brasiliensis [13] = assay: Fungicidal activity against Aspergillus brasiliensis ATCC 16404 incubated for 72 hrs followed by transferring to freshly prepared broth medium and measured after 24 hrs by broth microdilution assay; type: functional; conditions: time 96 hrs
Candida albicans [14] = assay: Antifungal activity against Candida albicans ATCC 10231 assessed as diameter of inhibition zone at 0.5 mg/ml incubated for 24 hrs by agar diffusion method; type: functional; conditions: read-out: DIZ
Staphylococcus aureus [15] = assay: Antibacterial activity against Staphylococcus aureus ATCC 29213 assessed as reduction in bacterial growth incubated for 1 day by paper disk diffusion method; type: functional; conditions: ATCC 29213, 24 h
Escherichia coli [16] = assay: Antibacterial activity against multidrug resistant Escherichia coli ATCC BAA-196 assessed as diameter of inhibition zone at 0.5 mg/ml incubated for 24 hrs by agar diffusion method; type: functional; conditions: read-out: DIZ
Neutrophil = assay: Immunomodulatory activity in human neutrophils infected with bacteria assessed as increase in bacterial killing by measuring reduced NBT incubated for 30 mins by NBT dye based spectrophotometry; type: functional; parameters: concentration or dose not given beside the values; conditions: 0.5 h
Candida albicans [17] = assay: Fungicidal activity against Candida albicans ATCC 10231 incubated for 24 hrs followed by transferring to freshly prepared broth medium and measured after 24 hrs by broth microdilution assay; type: functional; conditions: time 48 hrs
Pseudomonas aeruginosa [18] = assay: Antibacterial activity against multidrug resistant Pseudomonas aeruginosa ATCC BAA-2111 assessed as reduction in bacterial growth incubated for 1 day by paper disk diffusion method; type: functional; conditions: ATCC BAA-2111, 24 h
Escherichia coli [19] = assay: Bactericidal activity against Escherichia coli ATCC 25922 incubated for 24 hrs followed by transferring to freshly prepared broth medium and measured after 24 hrs by broth microdilution assay; type: functional; conditions: time 48 hrs
Staphylococcus aureus [20] = assay: Bactericidal activity against Staphylococcus aureus ATCC 33591 incubated for 24 hrs followed by transferring to freshly prepared broth medium and measured after 24 hrs by broth microdilution assay; type: functional; conditions: time 48 hrs
Enterococcus faecalis [21] = assay: Antibacterial activity against Enterococcus faecalis ATCC 29212 assessed as diameter of inhibition zone at 0.5 mg/ml incubated for 24 hrs by agar diffusion method; type: functional; conditions: read-out: DIZ
Salmonella typhimurium [22] = assay: Antibacterial activity against Salmonella typhi ATCC 6539 assessed as reduction in bacterial growth incubated for 1 day by paper disk diffusion method; type: functional, Salmonella enterica subsp. enterica serovar Typhimurium; conditions: Salmonella enterica, ATCC 6539, 24 h
Escherichia coli [23] = assay: Antibacterial activity against Escherichia coli ATCC 25922 assessed as diameter of inhibition zone at 0.5 mg/ml incubated for 24 hrs by agar diffusion method; type: functional; conditions: read-out: DIZ
Escherichia coli [24] = assay: Antibacterial activity against multidrug resistant Escherichia coli ATCC BAA-196 assessed as reduction in bacterial growth incubated for 1 day by paper disk diffusion method; type: functional; conditions: ATCC BAA-196, 24 h
Salmonella typhimurium [25] = assay: Bactericidal activity against Salmonella typhi ATCC 6539 incubated for 24 hrs followed by transferring to freshly prepared broth medium and measured after 24 hrs by broth microdilution assay; type: functional, Salmonella enterica subsp. enterica serovar […]; conditions: Salmonella enterica, time 48 hrs
Aspergillus brasiliensis [26] = assay: Antifungal activity against Aspergillus brasiliensis ATCC 16404 assessed as diameter of inhibition zone at 0.5 mg/ml incubated for 72 hrs by agar diffusion method; type: functional; conditions: read-out: DIZ
Escherichia coli [27] = assay: Bactericidal activity against Escherichia coli ATCC BAA-196 incubated for 24 hrs followed by transferring to freshly prepared broth medium and measured after 24 hrs by broth microdilution assay; type: functional; conditions: time 48 hrs
Staphylococcus aureus [28] = assay: Antibacterial activity against multidrug resistant Staphylococcus aureus ATCC 43300 assessed as diameter of inhibition zone at 0.5 mg/ml incubated for 24 hrs by agar diffusion method; type: functional; conditions: read-out: DIZ
Salmonella typhimurium [29] = assay: Antibacterial activity against Salmonella typhi ATCC 6539 assessed as diameter of inhibition zone at 0.5 mg/ml incubated for 24 hrs by agar diffusion method; type: functional, Salmonella enterica subsp. enterica serovar Typhimurium; conditions: Salmonella enterica, read-out: DIZ
Staphylococcus aureus [30] = assay: Antibacterial activity against Staphylococcus aureus ATCC 29213 assessed as diameter of inhibition zone at 0.5 mg/ml incubated for 24 hrs by agar diffusion method; type: functional; conditions: read-out: DIZ

Compound | MIC (Escherichia coli [1]) [mg/L] | MIC (Candida albicans [2]) [mg/L] | MIC (Staphylococcus aureus [3]) [mg/L] | MBC (Enterococcus faecalis [4]) [mg/L] | MBC (Pseudomonas aeruginosa [5]) [mg/L] | MBC (Staphylococcus aureus [6]) [mg/L] | IC50 (DNA gyrase) [µM] | MBC (Staphylococcus aureus [7]) [mg/L] | MIC (Staphylococcus aureus [8]) [mg/L] | zone of inhibition at 500 µg/mL (Pseudomonas aeruginosa [9]) [mm] | zone of inhibition at 500 µg/mL (Staphylococcus aureus [10]) [mm] | MIC (Enterococcus faecalis [11]) [mg/L] | MIC (Aspergillus brasiliensis [12]) [mg/L] | MFC (Aspergillus brasiliensis [13]) [mg/L] | zone of inhibition at 500 µg/mL (Candida albicans [14]) [mm] | MIC (Staphylococcus aureus [15]) [mg/L] | zone of inhibition at 500 µg/mL (Escherichia coli [16]) [mm] | Activity (Neutrophil) [%] | MFC (Candida albicans [17]) [mg/L] | MIC (Pseudomonas aeruginosa [18]) [mg/L] | also measured
CCOC(=O)C1=C(N)OC(C)=C(C(C)=O)C12C(=O)Nc1ccc(S(=O)(=O)N3CCOCC3)cc12 (centres undefined) | 15.6 (≈ 31.8 µM) | 8.88 (≈ 18.1 µM) | 4.44 (≈ 9.03 µM) | 17.6 (≈ 35.7 µM) | 12.5 (≈ 25.4 µM) | 100 (≈ 203 µM) | 25.1 | 6.66 (≈ 13.5 µM) | 3.9 (≈ 7.93 µM) | 20 | 23 | 12.5 (≈ 25.4 µM) | 88.3 (≈ 180 µM) | 177 (≈ 359 µM) | 20 | 62.5 (≈ 127 µM) | 24 | 136.7 | 15.6 (≈ 31.8 µM) | 7.81 (≈ 15.9 µM) | MBC (Escherichia coli [19]): 20.3 mg/L (≈ 41.3 µM); MBC (Staphylococcus aureus [20]): 5.07 mg/L (≈ 10.3 µM); zone of inhibition at 500 µg/mL (Enterococcus faecalis [21]): 19 mm; MIC (Salmonella typhimurium [22]): 31.2 mg/L (≈ 63.6 µM); zone of inhibition at 500 µg/mL (Escherichia coli [23]): 21 mm; MIC (Escherichia coli [24]): 3.9 mg/L (≈ 7.93 µM); MBC (Salmonella typhimurium [25]): 53.1 mg/L (≈ 108 µM); zone of inhibition at 500 µg/mL (Aspergillus brasiliensis [26]): 16 mm; MBC (Escherichia coli [27]): 7.8 mg/L (≈ 15.9 µM); zone of inhibition at 500 µg/mL (Staphylococcus aureus [28]): 23 mm; zone of inhibition at 500 µg/mL (Salmonella typhimurium [29]): 20 mm; zone of inhibition at 500 µg/mL (Staphylococcus aureus [30]): 23 mm
CCOC(=O)C1=C(N)OC(c2ccccc2)=C(C(C)=O)C12C(=O)Nc1ccc(S(=O)(=O)N3CCOCC3)cc12 (centres undefined) | 6.25 (≈ 11.3 µM) | 17.8 (≈ 32.1 µM) | 3.9 (≈ 7.04 µM) | 25 (≈ 45.2 µM) | 5.2 (≈ 9.39 µM) | 81.2 (≈ 147 µM) | 20.1 | 7.8 (≈ 14.1 µM) | 3.9 (≈ 7.04 µM) | 25 | 24 | 12.5 (≈ 22.6 µM) | 35.5 (≈ 64.2 µM) | 71.1 (≈ 128 µM) | 24 | 62.5 (≈ 113 µM) | 24 | 95.6 | 24.9 (≈ 44.9 µM) | 2.6 (≈ 4.7 µM) | MBC (Escherichia coli [19]): 12.5 mg/L (≈ 22.6 µM); MBC (Staphylococcus aureus [20]): 7.8 mg/L (≈ 14.1 µM); zone of inhibition at 500 µg/mL (Enterococcus faecalis [21]): 25 mm; MIC (Salmonella typhimurium [22]): 35.5 mg/L (≈ 64.2 µM); zone of inhibition at 500 µg/mL (Escherichia coli [23]): 25 mm; MIC (Escherichia coli [24]): 3.9 mg/L (≈ 7.04 µM); MBC (Salmonella typhimurium [25]): 49.8 mg/L (≈ 89.9 µM); zone of inhibition at 500 µg/mL (Aspergillus brasiliensis [26]): 21 mm; MBC (Escherichia coli [27]): 6.24 mg/L (≈ 11.3 µM); zone of inhibition at 500 µg/mL (Staphylococcus aureus [28]): 23 mm; zone of inhibition at 500 µg/mL (Salmonella typhimurium [29]): 23 mm; zone of inhibition at 500 µg/mL (Staphylococcus aureus [30]): 23 mm
